According to publication PMC2481421, “Gene expression response in target organ and whole blood varies as a function of target organ injury phenotype” (Genome Biology, 2008):
Where “and” joins values, the source holds several entries; their conditions need not be identical. Identical values can stand only once. Entries after “also recorded” stand apart in the source; their conditions may differ.

Key:
serum = assay: Serum clinical chemistry (COBAS MIRA); format: in vivo, Male Fischer 344/N rats; settings: rat, 15 mg/kg, 6 hours, animal 5
Procedure: (§1) Doses were determined with pilot experiments. […] Serum was collected for clinical chemistry.
At sacrifice, blood was collected in clotting tubes (BD Microtainer® Tubes, BD, Franklin Lakes, NJ, USA) and serum was separated. Clinical chemistry analysis was performed on all rats using a COBAS MIRA (Roche Diagnostics, Montclair, NJ, USA) using commercially available reagents from Equal Diagnostics (Exton, PA, USA) for the following assays: total protein, albumin, cholesterol, creatinine, direct bilirubin, total bilirubin, total bile acid, blood urea nitrogen and triglycerides. In addition, an enzymatic activity for the following proteins was measured: alanine aminotransferase, alkaline phosphatase, aspartate aminotransferase, lactate dehydrogenase, and sorbitol dehydrogenase. Additional data file 1 details the clinical chemistry value for each of these parameters for every animal.

whole blood = assay: Hematology of whole blood (Technicon H*1, differential and reticulocyte counts); format: in vivo, Male Fischer 344/N rats; settings: rat, 15 mg/kg, 6 hours, animal 5
Procedure: as §1
Blood was collected in EDTA tubes (BD Microtainer® Tubes). The samples were assayed using the Technicon H*1 hematology analyzer (Bayer Corporation, Tarrytown, NY, USA). The instrument performs white blood cell (WBC) counts by two independent methods. The values must have agreed within 10%. Manual counts and smear estimates were used to confirm values, when necessary. To monitor red blood cell (RBC) parameters, spun microhematocrits were performed for each specimen for comparison with the automated hematocrit (which is calculated from the directly measured RBCs and the mean cell volume). Control products were assayed after every tenth specimen. For WBC differential data, smears were Wright-Giemsa stained using an Ames Hema-Tek II automated slide stainer (Bayer Corporation, Ames Division, Elkhart, IN, USA) and manual WBC differential counts were performed on the first sample in each group. For reticulocyte counts, equal amounts of whole blood and New Methylene Blue stain were allowed to incubate at room temperature for at least 15 minutes. Smears were prepared and read to determine the percent reticulocytes per 1,000 RBCs. The percent value is multiplied by the RBC count to determine the absolute number of reticulocytes per microliter. Additional data file 1 details the values for each of these parameters for every animal.

[1] = In-life observations: body weight, gross findings before and at necropsy; format: in vivo, Male Fischer 344/N rats; settings: gavage, corn oil, individual animals
Procedure: as §1

liver = assay: Liver histopathology (H&E sections of left liver lobe, severity graded) after a single dose; settings: for level of hepatocellular necrosis: medium dose, 6 hour
[2] = 150 mg/kg, 24 hours, listed as 1, 2-Dichlorobenzene
[3] = 150 mg/kg, 48 hours, listed as 1, 2-Dichlorobenzene
[4] = 1500 mg/kg, 24 hours, listed as 1, 2-Dichlorobenzene
[5] = 1500 mg/kg, 48 hours, listed as 1, 2-Dichlorobenzene
[6] = categorical score, rat, 15 mg/kg, 6 hours, animal 5
[7] = severity score, rat, 15 mg/kg, 6 hours, animal 5

With `Clc1ccccc1Cl` [1,2-Dichlorobenzene] as the molecule, how does the ALP (serum) read?
Its ALP is 269 U/L.

And the ALT (serum)?
The ALT was 54 U/L.

And the AST (serum)?
Its AST is 128 U/l.

What about the Alb (serum) of the same molecule?
Its Alb is 2.9 g/dL.

What about the BUN (serum) of the same molecule?
The BUN was 20 mg/dL.

And the CK (serum)?
Its CK is 479 U/L.

What about the Chol (serum) of the same molecule?
Its Chol is 45 mg/dL.

What about the Crea (serum) of the same molecule?
The Crea was 1 mg/dL.

And the D.Bil (serum)?
The D.Bil was 0.2.

What about the LDH (serum) of the same molecule?
The LDH was 454 U/L.

What about the SDH (serum) of the same molecule?
The SDH was 5 U/L.

What about the T.Bil (serum) of the same molecule?
Its T.Bil is 0.9.

And the T.Protein (serum)?
The T.Protein was 6.7 g/dL.

What about the Trig (serum) of the same molecule?
The Trig was 195 mg/dL.

And the “% (Retic)” value (whole blood)?
Its value is 1.9%.

What about the “Absolute Retic” value (whole blood) of the same molecule?
The value was 0.1604.

What about the Baso-phils (whole blood) of the same molecule?
Its Baso-phils is 0.03.

What about the Eosino-phils (whole blood) of the same molecule?
The Eosino-phils was 0.06.

And the Hct (whole blood)?
Its Hct is 43.4%.

And the “Hgb 9g/dL0” value (whole blood)?
The value was 15 g/dL.

And the “LUCs (atyical)” value (whole blood)?
The value was 0.04.

What about the Lympho-cytes (whole blood) of the same molecule?
Its Lympho-cytes is 2.84.

And the MCH (whole blood)?
Its MCH is 17.8 pg.

What about the MCV (whole blood) of the same molecule?
The MCV was 51.4 fL.

What about the Mono-cytes (whole blood) of the same molecule?
The Mono-cytes was 0.2.

What about the “Neuts (Segs)” value (whole blood) of the same molecule?
Its value is 1.59.

And the Platelets (whole blood)?
The Platelets was 601 1000/ul.

And the RBC (whole blood)?
Its RBC is 8.44 mil/ul.

And the “Spun Hct” value (whole blood)?
Its value is 45%.

What about the WBC (whole blood) of the same molecule?
Its WBC is 4.77 1000/ul.

What about the “Clin/Ob Prior to Necropsy” value ([1]; 15 mg/kg, 6 hours) of the same molecule?
Its value is “Normal”.

And the “Gross Findings” value ([1]; 15 mg/kg, 6 hours)?
Its value is “No Gross Findings”.

What about the “Clin/Ob Prior to Necropsy” value ([1]; 15 mg/kg, 24 hours) of the same molecule?
Its value is “normal”.

What about the “Gross Findings” value ([1]; 15 mg/kg, 24 hours) of the same molecule?
The value was “No Gross Findings”.

And the “Final Body Wt.” value ([1]; 15 mg/kg, 24 hours, listed as 1, 2-Dichlorobenzene)?
The value was 225.00 g and 229.20 g and 252.70 g and 262.00 g.

What about the “Clin/Ob Prior to Necropsy” value ([1]; 15 mg/kg, 48 hours) of the same molecule?
The value was “normal”.

And the “Gross Findings” value ([1]; 15 mg/kg, 48 hours)?
The value was “No Gross Findings”.

What about the “Final Body Wt.” value ([1]; 15 mg/kg, 48 hours, listed as 1, 2-Dichlorobenzene) of the same molecule?
Its value is 238.50 g and 244.20 g and 246.80 g and 250.10 g.

And the “Clin/Ob Prior to Necropsy” value ([1]; 150 mg/kg, 6 hours)?
Its value is “Normal”.

What about the “Gross Findings” value ([1]; 150 mg/kg, 6 hours) of the same molecule?
The value was “No Gross Findings”.

And the “Clin/Ob Prior to Necropsy” value [1, 2]?
Its value is “normal; also recorded: lethargic”.

And the “Final Body Wt.” value [1, 2]?
Its value is 217.90 g and 205.90 g and 233.30 g and 249.00 g.

What about the “Gross Findings” value [1, 2] of the same molecule?
Its value is “No Gross Findings; also recorded: left & median liver lobe mottled; left dark on edges”.

What about the “Clin/Ob Prior to Necropsy” value ([1]; 150 mg/kg, 48 hours) of the same molecule?
Its value is “normal”.

What about the “Final Body Wt.” value [1, 3] of the same molecule?
Its value is 235.70 g and 244.20 g and 239.50 g and 241.90 g.

What about the “Gross Findings” value [1, 3] of the same molecule?
The value was “No Gross Findings; also recorded: left liver lobe rough surface”.

And the “Clin/Ob Prior to Necropsy” value ([1]; 1500 mg/kg, 6 hours)?
The value was “Normal”.

What about the “Gross Findings” value ([1]; 1500 mg/kg, 6 hours) of the same molecule?
The value was “No Gross Findings”.

And the “Clin/Ob Prior to Necropsy” value [1, 4]?
The value was “lethargic; also recorded: normal”.

What about the “Final Body Wt.” value [1, 4] of the same molecule?
Its value is 207.10 g and 207.70 g and 219.70 g and 225.00 g.

What about the “Gross Findings” value [1, 4] of the same molecule?
Its value is “left & median liver lobes mottled; left dark on edges; also recorded: No Gross Findings; also recorded: left & median liver lobes mottled; median dark on edges”.

What about the “Clin/Ob Prior to Necropsy” value ([1]; 1500 mg/kg, 48 hours) of the same molecule?
The value was “lethargic”.

And the “Final Body Wt.” value [1, 5]?
Its value is 208.60 g and 211.10 g.

What about the “Gross Findings” value [1, 5] of the same molecule?
The value was “No Gross Findings; also recorded: left & median liver lobes rough surface”.

What about the Inflammation (liver; [6]) of the same molecule?
The Inflammation was 0.

And the Repair (liver; [6])?
The Repair was 0.

What about the “Response to Hepatocellular Injury” value (liver; [6]) of the same molecule?
Its value is 0.

What about the “level of hepatocellular necrosis” value (liver; animal 2) of the same molecule?
The value was “did not have any observable necrosis”.

And the “level of hepatocellular necrosis” value (liver; animals 1, 3, and 4)?
The value was “minimal”.

And the “Bile Duct Hyperplasia” value (liver; [7])?
Its value is 0.

And the “Cellular Infiltration, Mixed Cell” value (liver; [7])?
The value was 0.

What about the “Cellular Infiltration, Mononuclear Cell” value (liver; [7]) of the same molecule?
Its value is 0.

And the “Cellular Infiltration, Neutrophil” value (liver; [7])?
Its value is 0.

What about the “Centrilobular Cellular Infiltration, Mixed Cell” value (liver; [7]) of the same molecule?
The value was 0.

What about the “Centrilobular Cellular Infiltration, Mononuclear Cell” value (liver; [7]) of the same molecule?
Its value is 0.

What about the “Centrilobular Cellular Infiltration, Neutrophil” value (liver; [7]) of the same molecule?
The value was 0.

And the “Centrilobular Hepatocyte Degeneration” value (liver; [7])?
Its value is 0.

And the “Centrilobular Hepatocyte Necrosis” value (liver; [7])?
Its value is 0.

And the “Centrilobular, Hepatocyte, Midzonal Degeneration” value (liver; [7])?
The value was 0.

What about the “Centrilobular, Hepatocyte, Midzonal Necrosis” value (liver; [7]) of the same molecule?
Its value is 0.

What about the Congestion (liver; [7]) of the same molecule?
The Congestion was 0.

What about the “Depletion Glycogen” value (liver; [7]) of the same molecule?
The value was 0.

What about the “Focal Hepatocyte Necrosis” value (liver; [7]) of the same molecule?
The value was 0.

What about the Hemorrhage (liver; [7]) of the same molecule?
Its Hemorrhage is 0.

What about the “Hepatocyte Apoptosis” value (liver; [7]) of the same molecule?
The value was 0.

What about the “Hepatocyte Fatty Change” value (liver; [7]) of the same molecule?
Its value is 0.

What about the “Hepatocyte Hypertrophy” value (liver; [7]) of the same molecule?
Its value is 0.

What about the “Hepatocyte Necrosis” value (liver; [7]) of the same molecule?
Its value is 0.

And the “Hepatocyte Regeneration” value (liver; [7])?
The value was 0.

And the “Midzonal Centrilobular Cellular Infiltration, Mixed Cell” value (liver; [7])?
The value was 0.

What about the “Midzonal Centrilobular Cellular Infiltration, Neutrophil” value (liver; [7]) of the same molecule?
The value was 0.

And the “Midzonal Hepatocyte Necrosis” value (liver; [7])?
Its value is 0.

What about the Mitosis (liver; [7]) of the same molecule?
The Mitosis was 0.

And the “Portal Cellular Infiltration, Mixed Cell” value (liver; [7])?
The value was 0.

What about the “Portal Cellular Infiltration, Neutrophil” value (liver; [7]) of the same molecule?
The value was 0.
